Measurements published in patent US20250255867A1 (Kadmon Corporation, LLC, priority 2022, published 2025).

Details: Cohort 1 200 mg QD
Protocol: All responses were assessed by the investigators.
Reported Adverse Events. […] All-cause mortality data collected during the study were assessed for all enrolled participants. Disease progression related death was not reported as AE.
Number of Participants With Treatment-emergent Adverse Events (TEAEs), and Treatment-emergent Serious Adverse Events (TESAEs). […] TEAEs included both SAEs and non-SAEs. […] Analysis was performed on safety population which included all participants who received at least 1 dose of study medication.

CC(C)NC(=O)COc1cccc(-c2nc(Nc3ccc4[nH]ncc4c3)c3ccccc3n2)c1 [Belumosudil, 2-{3-[4-(1H-indazol-5-ylamino)-2-quinazolinyl]phenoxy}-N-(propan-2-yl) acetamide]
1/17: Hypogonadism: Affected/At Risk | Hypokalaemia: Affected/At Risk | Hypomagnesaemia: Affected/At Risk | Hyponatraemia: Affected/At Risk | Hypophosphataemia: Affected/At Risk | Hypothyroidism: Affected/At Risk | Hypoxia: Affected/At Risk | Impaired healing: Affected/At Risk | Influenza like illness: Affected/At Risk | Irritability: Affected/At Risk | Leukaemia recurrent: Affected/At Risk | Leukocytosis: Affected/At Risk | Ligament sprain: Affected/At Risk | Limb injury: Affected/At Risk | Muscle spasms: Affected/At Risk | Muscle spasticity: Affected/At Risk | Musculoskeletal chest pain: Affected/At Risk | Myalgia: Affected/At Risk | Nail disorder: Affected/At Risk | Neck pain: Affected/At Risk | Nephrotic syndrome: Affected/At Risk | Neutrophil count decreased: Affected/At Risk | Nocturia: Affected/At Risk | Oropharyngeal pain: Affected/At Risk | Orthopnoea: Affected/At Risk | Osteonecrosis: Affected/At Risk | Overdose: Affected/At Risk | Palpitations: Affected/At Risk | Pericardial effusion: Affected/At Risk | Peripheral coldness: Affected/At Risk | Platelet count decreased: Affected/At Risk | Pleural effusion: Affected/At Risk | Pneumonia: Affected/At Risk | Pollakiuria: Affected/At Risk | Pruritus: Affected/At Risk | Pseudomonas infection: Affected/At Risk | Pyrexia: Affected/At Risk | Rash: Affected/At Risk | Respiratory tract infection fungal: Affected/At Risk | Respiratory tract infection: Affected/At Risk | SAE Acute respiratory failure, affected/at risk | SAE Anaphylactic reaction, affected/at risk | SAE Influenza A virus test positive, affected/at risk
5 (29%) participants: Participants with TESAE
(17.65%): Nasal congestion: Affected/At Risk (%) | Oedema peripheral: Affected/At Risk (%) | Pain: Affected/At Risk (%)
3: Nasal congestion: # Events | Oedema peripheral: # Events | Oral candidiasis: # Events | Pain: # Events | Platelet count decreased: # Events | Pyrexia: # Events
2: Hypothyroidism: # Events | Influenza: # Events | Myalgia: # Events | Obesity: # Events | Pain in extremity: # Events | Pneumonia: # Events | Productive cough: # Events | Proteinuria: # Events | Rash maculo-papular: # Events | Rash: # Events
(11.76%): Influenza: Affected/At Risk (%) | Obesity: Affected/At Risk (%) | Oral candidiasis: Affected/At Risk (%) | Pain in extremity: Affected/At Risk (%) | Productive cough: Affected/At Risk (%) | Proteinuria: Affected/At Risk (%) | Rash maculo-papular: Affected/At Risk (%)
(35.29%): Nausea: Affected/At Risk (%)
(23.53%): Muscular weakness: Affected/At Risk (%)
(0%): Hypothermia: Affected/At Risk (%) | Insomnia: Affected/At Risk (%) | Joint range of motion decreased: Affected/At Risk (%) | Lacrimation increased: Affected/At Risk (%) | Macular degeneration: Affected/At Risk (%) | Migraine: Affected/At Risk (%) | Neuropathy peripheral: Affected/At Risk (%) | Non-cardiac chest pain: Affected/At Risk (%) | Oedema: Affected/At Risk (%) | Oesophageal ulcer: Affected/At Risk (%) | Osteopenia: Affected/At Risk (%) | Osteoporosis: Affected/At Risk (%) | Paraesthesia: Affected/At Risk (%) | Peripheral sensory neuropathy: Affected/At Risk (%) | Phlebitis: Affected/At Risk (%) | Photophobia: Affected/At Risk (%) | Pneumonia respiratory syncytial viral: Affected/At Risk (%) | Presyncope: Affected/At Risk (%) | Pulmonary mass: Affected/At Risk (%) | Rash erythematous: Affected/At Risk (%) | Rash pustular: Affected/At Risk (%) | Red blood cells urine positive: Affected/At Risk (%) | Renal failure: Affected/At Risk (%) | Respiratory syncytial virus infection: Affected/At Risk (%) | Restless legs syndrome: Affected/At Risk (%) | Rosacea: Affected/At Risk (%)
6/17: Nausea: Affected/At Risk
10: Nausea: # Events
(5.88%): Hypogonadism: Affected/At Risk (%) | Hypokalaemia: Affected/At Risk (%) | Hypomagnesaemia: Affected/At Risk (%) | Hyponatraemia: Affected/At Risk (%) | Hypophosphataemia: Affected/At Risk (%) | Hypothyroidism: Affected/At Risk (%) | Hypoxia: Affected/At Risk (%) | Impaired healing: Affected/At Risk (%) | Influenza like illness: Affected/At Risk (%) | Irritability: Affected/At Risk (%) | Leukaemia recurrent: Affected/At Risk (%) | Leukocytosis: Affected/At Risk (%) | Ligament sprain: Affected/At Risk (%) | Limb injury: Affected/At Risk (%) | Muscle spasms: Affected/At Risk (%) | Muscle spasticity: Affected/At Risk (%) | Musculoskeletal chest pain: Affected/At Risk (%) | Myalgia: Affected/At Risk (%) | Nail disorder: Affected/At Risk (%) | Neck pain: Affected/At Risk (%) | Nephrotic syndrome: Affected/At Risk (%) | Neutrophil count decreased: Affected/At Risk (%) | Nocturia: Affected/At Risk (%) | Oropharyngeal pain: Affected/At Risk (%) | Orthopnoea: Affected/At Risk (%) | Osteonecrosis: Affected/At Risk (%) | Overdose: Affected/At Risk (%) | Palpitations: Affected/At Risk (%) | Pericardial effusion: Affected/At Risk (%) | Peripheral coldness: Affected/At Risk (%) | Platelet count decreased: Affected/At Risk (%) | Pleural effusion: Affected/At Risk (%) | Pneumonia: Affected/At Risk (%) | Pollakiuria: Affected/At Risk (%) | Pruritus: Affected/At Risk (%) | Pseudomonas infection: Affected/At Risk (%) | Pyrexia: Affected/At Risk (%) | Rash: Affected/At Risk (%) | Respiratory tract infection fungal: Affected/At Risk (%) | Respiratory tract infection: Affected/At Risk (%)
4/17: Muscular weakness: Affected/At Risk
2/17: Influenza: Affected/At Risk | Obesity: Affected/At Risk | Oral candidiasis: Affected/At Risk | Pain in extremity: Affected/At Risk | Productive cough: Affected/At Risk | Proteinuria: Affected/At Risk | Rash maculo-papular: Affected/At Risk
3/17: Nasal congestion: Affected/At Risk | Oedema peripheral: Affected/At Risk | Pain: Affected/At Risk
6: Muscular weakness: # Events
17 (100%) participants: Participants with TEAE
0: Hypothermia: # Events | Insomnia: # Events | Joint range of motion decreased: # Events | Lacrimation increased: # Events | Macular degeneration: # Events | Migraine: # Events | Neuropathy peripheral: # Events | Non-cardiac chest pain: # Events | Oedema: # Events | Oesophageal ulcer: # Events | Osteopenia: # Events | Osteoporosis: # Events | Paraesthesia: # Events | Peripheral sensory neuropathy: # Events | Phlebitis: # Events | Photophobia: # Events | Pneumonia respiratory syncytial viral: # Events | Presyncope: # Events | Pulmonary mass: # Events | Rash erythematous: # Events | Rash pustular: # Events | Red blood cells urine positive: # Events | Renal failure: # Events | Respiratory syncytial virus infection: # Events | Restless legs syndrome: # Events | Rosacea: # Events | SAE Abdominal wall haematoma, # events | SAE Acute kidney injury, # events | SAE Acute lymphocytic leukaemia recurrent, # events | SAE Bacteraemia, # events | SAE Cardiac arrest, # events | SAE Cellulitis, # events | SAE Chronic graft versus host disease in skin, # events | SAE Citrobacter infection, # events | SAE Dyspnoea, # events | SAE Embolism, # events | SAE Febrile neutropenia, # events | SAE Graft versus host disease in lung, # events | SAE Hypoxia, # events | SAE Influenza like illness, # events | SAE Lacunar infarction, # events | SAE Leukaemia recurrent, # events
1: Hypogonadism: # Events | Hypokalaemia: # Events | Hypomagnesaemia: # Events | Hyponatraemia: # Events | Hypophosphataemia: # Events | Hypoxia: # Events | Impaired healing: # Events | Influenza like illness: # Events | Irritability: # Events | Leukaemia recurrent: # Events | Leukocytosis: # Events | Ligament sprain: # Events | Limb injury: # Events | Muscle spasms: # Events | Muscle spasticity: # Events | Musculoskeletal chest pain: # Events | Nail disorder: # Events | Neck pain: # Events | Nephrotic syndrome: # Events | Neutrophil count decreased: # Events | Nocturia: # Events | Oropharyngeal pain: # Events | Orthopnoea: # Events | Osteonecrosis: # Events | Overdose: # Events | Palpitations: # Events | Pericardial effusion: # Events | Peripheral coldness: # Events | Pleural effusion: # Events | Pollakiuria: # Events | Pruritus: # Events | Pseudomonas infection: # Events | Respiratory tract infection fungal: # Events | Respiratory tract infection: # Events | SAE Acute respiratory failure, # events | SAE Anaphylactic reaction, # events | SAE Influenza A virus test positive, # events
0/17: Hypothermia: Affected/At Risk | Insomnia: Affected/At Risk | Joint range of motion decreased: Affected/At Risk | Lacrimation increased: Affected/At Risk | Macular degeneration: Affected/At Risk | Migraine: Affected/At Risk | Neuropathy peripheral: Affected/At Risk | Non-cardiac chest pain: Affected/At Risk | Oedema: Affected/At Risk | Oesophageal ulcer: Affected/At Risk | Osteopenia: Affected/At Risk | Osteoporosis: Affected/At Risk | Paraesthesia: Affected/At Risk | Peripheral sensory neuropathy: Affected/At Risk | Phlebitis: Affected/At Risk | Photophobia: Affected/At Risk | Pneumonia respiratory syncytial viral: Affected/At Risk | Presyncope: Affected/At Risk | Pulmonary mass: Affected/At Risk | Rash erythematous: Affected/At Risk | Rash pustular: Affected/At Risk | Red blood cells urine positive: Affected/At Risk | Renal failure: Affected/At Risk | Respiratory syncytial virus infection: Affected/At Risk | Restless legs syndrome: Affected/At Risk | Rosacea: Affected/At Risk | SAE Abdominal wall haematoma, affected/at risk | SAE Acute kidney injury, affected/at risk | SAE Acute lymphocytic leukaemia recurrent, affected/at risk | SAE Bacteraemia, affected/at risk | SAE Cardiac arrest, affected/at risk | SAE Cellulitis, affected/at risk | SAE Chronic graft versus host disease in skin, affected/at risk | SAE Citrobacter infection, affected/at risk | SAE Dyspnoea, affected/at risk | SAE Embolism, affected/at risk | SAE Febrile neutropenia, affected/at risk | SAE Graft versus host disease in lung, affected/at risk | SAE Hypoxia, affected/at risk | SAE Influenza like illness, affected/at risk | SAE Lacunar infarction, affected/at risk | SAE Leukaemia recurrent, affected/at risk
